In assay [1] the test system is E. coli ribosomes translating MLIFstop-mRNA. Briefly: Toeprinting assay on MLIFstop-mRNA. The format is biochemical. The settings on record: 0.5-100 µM, toeprinting in duplicate, 30 min at 37 °C. The text has this:
To investigate how paenilamicins inhibit translation, we generated PamB2-stalled ribosome complexes (PamB2-SRC) for single-particle cryo-EM analysis. Rather than forming complexes on vacant ribosomes, or with predefined functional states, we instead aimed to use more physiological complexes where translating ribosomes become stalled by PamB2. To achieve this, we performed in vitro translation reactions with E. coli ribosomes using the Met-Leu-Ile-Phe-stop-mRNA (MLIFstop-mRNA), a model template that we had previously used to successfully determine structures of drosocin-stalled ribosomal complexes. Toeprinting was used to monitor the position of ribosomes on the MLIFstop-mRNA in the presence of increasing concentrations of synthetic PamB2 (Extended Data Fig. 2). […] (Extended Data Fig. 2). […] (Extended Data Fig. 2).
Toeprinting reactions for Fig. 4b and Extended Data Fig. 2 were performed as described previously. Briefly, reactions were performed with 6 μl of PURExpress in vitro protein synthesis system (New England Biolabs). The reactions were carried out with different primers and templates (Supplementary Tables 2 and 3). The reactions contained 340 ng of the respective mRNA template and were supplemented with the different compounds as specified. The translation reactions were incubated for 30 min at 37 °C. […]

Assay [2] concerns eukaryotic in vitro translation. Briefly: Eukaryotic in vitro translation assay (Rabbit Reticulocyte Lysate System). The settings on record: 0.01-10 µM. Format: biochemical. On the procedure:
The effect of PamB2 on eukaryotic translation was determined using the Rabbit Reticulocyte Lysate System (Promega) as previously described. Briefly, 6-μl reactions, with or without PamB2 were mixed according to the manufacturer’s description and incubated for 30 min at 32 °C with shaking (600 rpm). Each reaction was stopped by adding 3 μl of cycloheximide (600 μM). All samples were diluted with 40 μl of Luciferase assays substrate (Promega) into a white 96-well chimney flat-bottom microtiter plate (Greiner). The luminescence was then measured using a Tecan Infinite M1000 plate reader. Relative values were determined by defining the luminescence value of the sample without inhibitor as 100%.

Assay [3] has as its system ribosomes translating ErmBL mRNA. The assay can be described thus: Toeprinting on ErmBL mRNA with mutated second codon (Fig. 4b). The format is biochemical, E. coli. The settings on record: 50 µM, in duplicate. On the procedure: Toeprinting reactions for Fig. 4b and Extended Data Fig. 2 were performed as described previously. Briefly, reactions were performed with 6 μl of PURExpress in vitro protein synthesis system (New England Biolabs). The reactions were carried out with different primers and templates (Supplementary Tables 2 and 3). The reactions contained 340 ng of the respective mRNA template and were supplemented with the different compounds as specified. The translation reactions were incubated for 30 min at 37 °C. The reverse transcription reaction was carried out using AMV RT and primer NV*1-Alexa 647 (5′-[…]-3′). The translation reactions were incubated with the reverse transcriptase and the primer for 20 min at 37 °C. mRNA degradation was carried out by the addition of 1 µl of 5 M NaOH. The reactions were neutralized with 0.7 µl of 25% HCl, and nucleotide removal was performed with the QIAquick Nucleotide Removal Kit (Qiagen). The samples were dried under vacuum for 2 h at 60 °C for subsequent gel electrophoresis. The 6% acrylamide gels were scanned on a Typhoon scanner (GE Healthcare).

The next assay deals with fungi. The following applies: cited from earlier work. The text has this: In the A-site, PamB2 contacts not only with 16S rRNA nucleotides in h44, but also A1913 from H69 of the 23S rRNA, and, in contrast to the P-site, the compound makes extensive interactions with the A-site tRNA, albeit less with the mRNA codon (Fig. 2c–f). Interactions of PamB2 with the A-site tRNA revolve around nucleotides ct^6A37 and A38, which are located in the anticodon-stem loop, directly adjacent to the anticodon (34CAU36) (Fig. 2e,f). Specifically, three direct hydrogen bonds are possible with A38 (Fig. 2e). Interactions with ct^6A37 are indirect, being mediated by water W6, which is co ...

Turning to paenilamicin B2 [PamB2], the “ribosome stalling on MLIFstop-mRNA” value in assay [1] was “gradual loss of ribosomes at the AUG codon and an increase in ribosomes stalled one codon further with the UUG (Leu) codon in the P-site”. The “inhibition of eukaryotic in vitro translation (in words)” value in assay [2] is listed as “efficiently inhibits eukaryotic in vitro translation”. For the same substance, the “inhibition of first translocation, A-site codon AUG” value in assay [3] (ErmBL mRNA second codon AUG) was “clear toeprint bands”. In addition, the “inhibition of first translocation, A-site codon CUG” value in assay [3] (ErmBL mRNA second codon CUG (tRNALeu, m1G37)) was “appeared to be stronger than with U, it was reproducibly weaker than with A and G”. Further, the “inhibition of first translocation, A-site codon GUG” value in assay [3] (ErmBL mRNA second codon GUG) was “appeared to be the strongest”. Moreover, the “inhibition of first translocation, A-site codon UUG” value in assay [3] (ErmBL mRNA second codon UUG) is recorded as “little to no inhibition of the first translocation event”. For the same substance, the antifungal activity result in the assay on fungi is listed as “antifungal activity”.

Source of the values: paper PMC11581978, “Paenilamicins are context-specific translocation inhibitors of protein synthesis” (Nature Chemical Biology, 2024).
